How the values were obtained:
Format in all cases: cell-based, human
DSCR1 [1] = test: GeneCalling analysis of DSCR1 mRNA expression in HUVECs; conditions: VEGF 30 ng/mL, relative to basal conditions
Excerpt: (§1) Cells and cell assays. Primary human endothelial cells were purchased from Clonetics (Santa Rosa, Calif.) and cultured according to the manufacturer's instructions. For gene calling experiments, human umbilical vein endothelial cells (HUVECs) were purchased from Clonetics (BioWhittaker, Walkersville, Md.) and maintained in endothelial growth medium (EBM-2) complemented with 5% fetal calf serum (FCS) following the manufacturer's instructions. Cells (1×107) were split at a cell density of 19 000 cell/cm2 and triplicate experiments for each condition were run in parallel. Twenty-four hours after plating the cells, cell were washed 3 times with phosphate-buffered saline (PBS) and media (Clonetics) containing either 0.1% bovine serum albumin (BSA) or 0.1% BSA plus VEGF (30 ng/mL) or 5% FCS. RNA isolation and reverse transcription-PCR (RT-PCR) analysis was performed as described.^21 For cell culture experiments, the following conditions were used: human (h) VEGF, 30 ng/mL; hTNF-α, 10 ng/mL; PMA, 200 ng/mL (Calbiochem, LaJolla, Calif.); CsA, 1 μM (Calbiochem); IO 5 μM (Sigma, St Louis, Mo.); thapsigargin, 50 nM (Sigma). […] 24 hours after serum starvation and dosing, cell were counted on a Coulter brand style cell counter. […]

HUVECs = test: GeneCalling gene expression profiles of stimulated HUVECs
Excerpt: as §1

DSCR1 [2] = test: DSCR1 expression analysis by real-time RT-PCR (TaqMan) in HUVECs; conditions: serum-starved HUVECs, over 36 hours
Excerpt: (§2) Cells and cell assays. Primary human endothelial cells were purchased from Clonetics (Santa Rosa, Calif.) and cultured according to the manufacturer's instructions. For gene calling experiments, human umbilical vein endothelial cells (HUVECs) were purchased from Clonetics (BioWhittaker, Walkersville, Md.) and maintained in endothelial growth medium (EBM-2) complemented with 5% fetal calf serum (FCS) following the manufacturer's instructions. Cells (1×107) were split at a cell density of 19 000 cell/cm2 and triplicate experiments for each condition were run in parallel. Twenty-four hours after plating the cells, cell were washed 3 times with phosphate-buffered saline (PBS) and media (Clonetics) containing either 0.1% bovine serum albumin (BSA) or 0.1% BSA plus VEGF (30 ng/mL) or 5% FCS. RNA isolation and reverse transcription-PCR (RT-PCR) analysis was performed as described.^21 For cell culture experiments, the following conditions were used: human (h) VEGF, 30 ng/mL; hTNF-α, 10 ng/mL; PMA, 200 ng/mL (Calbiochem, LaJolla, Calif.); CsA, 1 μM (Calbiochem); IO 5 μM (Sigma, St Louis, Mo.); thapsigargin, 50 nM (Sigma). In one instance inhibiting (si) RNAs were generated by Dharmacon (Lafayette, Colo.) based on the full-length cDNAs of the respective gene and using the “Smart-pool” service (Dharmacon, Lafayette, Colo.). For adenoviral transduction survival experiments, human umbilical vein endothelial cells (HUVECs) were maintained in endothelial growth medium (EBM-2) complemented with 5% FCS following the manufacturer's instructions. 3×10^5 cells were split per well of a 6 well plate (Primaria, BD Biosciences, Bedford, Mass.) and duplicate experiments for each condition were run in parallel. Cells were infected with adenovirus (MOI=100) encoding for a gD peptide (Ad-Control), DSCR1 (Ad-DSCR1) or an antisense construct with the coding sequence inverted (Ad-DSCR1-AS) for 2 h in serum free media containing 10 mM […] and 10 nM MgCl2 on a vertical shaker at room temperature. Thereafter, 5 times the volume of regular growth medium containing 5% FCS was added and cells were kept for 1 day in a CO2 incubator. Thereafter, cells were washed three times with PBS and basal media (Clonetics, Santa Rosa, Calif.) containing 0.1 % BSA was added and PMA/IO, H202, and ZVAD as indicated. 24 hours after serum starvation and dosing, cell were counted on a Coulter brand style cell counter. For cell culture experiments, the following conditions were used: PMA: 200 ng/ml (Calbiochem, LaJolla, Calif.), Ionomycine: 5 μM (Sigma, St. Louis, Mo.), a 3% H202 solution was diluted 1:300 in basal media, 0.1% BSA to result in a 0.01% H202 solution, ZVAD 5 μM.

DSCR1 [3] = test: DSCR1 expression by real-time RT-PCR in HPAECs, HMVECs and HUAECs; conditions: HMVECs, HUAECs
Excerpt: as §1

DSCR1 [4] = test: Western blot of DSCR1 protein in whole cell extracts of HUVECs; conditions: 6 hours of stimulation
Description: Cells cultured in 10-cm dishes were washed twice in Tris (tris(hydroxymethyl)aminomethane)-buffered saline, and 0.6 mL RIPA buffer (10 mM PBS, 1% Nonidet P-40, 0.5% sodium deoxycholate, 0.1% sodium dodecyl sulfate [SDS], […] phenylmethylsulfonyl fluoride, 30 μg/mL aprotinin, 1 mM sodium orthovanadate), and protease inhibitors (Roche Pharmaceuticals, Gaithersburg, Md.) were added. Mouse monoclonal antibody (mAb) directed against human NFATc 1, c2, and c3 was purchased from Santa Cruz Biotechnology (Santa Cruz, Calif.). Affinity-purified goat polyclonal antibody against human E-selectin, vascular cell adhesion molecule-1 (VCAM-1), intercellular adhesion molecule-1 (ICAM-1), and Cox-2 was from BD Pharmingen. Total endothelial cell extract, polyacrylamide gel electrophoresis (PAGE), blotting, and immunodetection were performed according to the Santa Cruz Biotechnology protocol. A total of […] whole-cell extract was loaded on each lane of a 4% to 16% polyacrylamide gel. The enhanced chemiluminescence (ECL) reaction kit was purchased from Amersham Pharmacia Biotech (Piscataway, N.J.), and horseradish peroxidase streptavidin from Vector Laboratories (Burlingame, Calif.) was used. For NFATc1 experiments, equal amounts of cell extract were loaded to visualize NFATc1 (mAb 7A6; 1:500; Santa Cruz Biotechnology) and the loading control α-tubulin (mAb from ICN, Santa Ana, Calif.; 1:5000). For Cox-2 and TF immunoblot analysis equal amounts of cell lysate were loaded on a 6% to 12% gradient SDS-PAGE. Cox-2 was analyzed with an anti-Cox2 mAb (RDI, 1:500) and TF with an anti-hTF mAb (clone 7G11) was generated at Genentech, and used at a 1:500 dilution. Before loading the samples on the gel, the protein amounts were quantified and adjusted accordingly. As loading control, an anti-γ-adaptin mAb was used (1:1000) on a 4% to 20% polyacrylamide gel.
DSCR1 was PCR amplified with primers DSCR1-EcoRI-Pro 5′, adding an extra proline and DSCR1-Stop-XhoI 3′, by using DSCR1 cDNA as a template and cloned into pGEX-KG. GST-DSCR1 was expressed and purified essentially as described previously.^23 Polyclonal rabbit anti-GST-DSCR1 was prepared by immunization with recombinant GST-DSCR1. Filtered crude serum was used for Western blots (1:400).

NFATc1 = test: IHC/immunofluorescence analysis of nuclear translocation of NFATc1; conditions: endothelial cells, 20 minutes after VEGF 30 ng/mL; adenoviral transduction MOI=100
Description: Primary human endothelial cells (7×10^3 cells/cm^2) were seeded into each well of an 8-chamber microscope slide (Nalgene Nunc, Naperville, Ill.) 24 hours prior to staining. Cells were infected with adenovirus (multiplicity of infection [MOI]=100) encoding for LacZ or DSCR1 for 2 hours in serum-free media containing 10 mM CaCl2 and 10 nM MgCl2 on a vertical shaker at room temperature. Thereafter, 5 times the volume of regular growth medium was added and cells were kept for 2 days in a CO2 incubator. After replacing the media, cells were treated with hVEGF at a concentration of 30 ng/mL for 20 minutes. Prior to incubation with various antibodies, cells were fixed with methanol for 4 minutes at −20° C. and washed with PBS at room temperature. Cells were incubated in PBS containing the primary mouse antihuman NFATc1 antibody (sc7294, Santa Cruz Biotechnology) for 1 hour at room temperature. Cells were then washed 3 times with PBS and incubated in PBS containing Alexa Fluor 488 antimouse IgG (Molecular Probes, Eugene, Oreg.). Cells were finally washed 3 times with PBS and mounted beneath coverslips in Vectashield medium (Vector Laboratories). Microscopy and photography were conducted using a Zeiss Axiovert 200 fluorescence microscope fitted with an AxioCam MR monochrome camera (Zeiss, Thornwood, N.Y.) using a ×63 oil objective.

Cox-2, E-selectin, TF = test: Real-time RT-PCR of inflammatory marker / VEGF target genes in HUVECs
Excerpt: as §2

VEGF
induced DSCR1 mRNA expression (DSCR1 [1]; after 6 hours): 4.8 fold | induced DSCR1 mRNA expression (DSCR1 [1]; after 24 hours): 2.9 fold | changes in traces representing alterations in expression of genes (HUVECs; after 6 hours): 1.7% | changes in traces representing alterations in expression of genes (HUVECs; after 24 hours): 3.4% | DSCR1 expression levels (real-time RT-PCR) (DSCR1 [2]): induced prolonged expression of DSCR1 | DSCR1 expression (real-time RT-PCR) (DSCR1 [3]): increased levels of DSCR1 expression | DSCR1 protein levels (DSCR1 [4]): induction of DSCR1 | nuclear localization of NFATc1 (NFATc1): prominent nuclear localization of NFATc1 | expression of Bcl-2 (Cox-2, E-selectin, TF; HUVECs, VEGF stimulation, entire experiment): consistently expressed | GM-CSF, TF, COX-2, VCAM-1 and E-selectin RNA levels (Cox-2, E-selectin, TF; HUVECs, between 0 and 2 hours after VEGF): increased | GM-CSF, TF, COX-2, VCAM-1 and E-selectin RNA levels (Cox-2, E-selectin, TF; HUVECs, between 6 and 36 hours after VEGF, compared to untreated cells): reversed into repression | increase in gene expression (COX2, E-selectin, TF mRNA) (Cox-2, E-selectin, TF; endothelial cells, 4 hours of incubation): 2- to 3 fold

From patent US20060281680A1, “Methods and compositions for modulating vascular integrity” (GENENTECH, INC., priority 2005, published 2006)
